Reference: US20240368133A1, “Compounds for the Treatment of Pain, in Particular, Neuropathic Pain, and/or Other Diseases or Disorders that are Associated with AT2R and/or AT2R Mediated Signaling” (Confo Therapeutics N.V., priority 2021, published 2024)
Blank lines part the entries; values can stand above or below the compound they belong to.

Legend:
[1] = target: human AT1R (Homo sapiens (Human), UniProt P30556); test: Counterscreen radioligand binding assay, displacement of 125I-[Sar1, Ile8]-Angiotensin II, hAT1R WT; conditions: for inhibition at 1 µM / inhibition at 10 µM: 125I-[Sar1, Ile8]-Ang II, semi-quantitative score; for inhibition at 1 µM: compound at 1 μM, read-out: % Displaced radioligand at 1 μM; for inhibition at 10 µM: compound at 10 μM, read-out: % Displaced radioligand at 10 μM; for IC50: HEK-293 cell membranes, read-out: Binding affinity On hAT1R IC50
Summary of the method: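 Compounds displaced 0.05 nM 125I-[Sar1, Ile8]-Ang II from human AT1R in HEK-293 membranes (1 h, 25° C; Tris/MgCl2/EDTA/BSA buffer, pH 7.4). Readout was filtration and scintillation counting, with non-specific binding set by 10 μM [Sar1]-Ang II. Values are % displacement at 1 μM and […], or IC50 from eight-point four-parameter fits.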

[2] = Liver microsomal stability, rat; type: in vitro ADME; conditions: male, pH 7.4, liver microsomes
Description: (§1) Mouse hepatic microsomes were isolated from pooled (50), perfused livers of male Balb/c mice. Rat hepatic microsomes were isolated from pooled (15), perfused livers of male Wistar rats. Isolation was performed according to the standard protocol (Hill, J. R. in Current Protocols in Pharmacology 7.8.1-7.8.11, Wiley Interscience, 2003). The batches of microsomes were tested for quality control using Imipramine, Propranolol and Verapamil as reference compounds.
(§2) Microsomal incubations were carried out in 96-well plates in 5 aliquots of 40 μL each (one for each time point). Liver microsomal incubation medium contained PBS (100 mM, pH 7.4), MgCl2 (3.3 mM), NADPH (3 mM), glucose-6-phosphate (5.3 mM), glucose-6-phosphate dehydrogenase (0.67 units/ml) with 0.42 mg of liver microsomal protein per ml. Control incubations were performed replacing the NADPH-cofactor system with PBS. Test compound (2 μM, final solvent concentration 1.6%) was incubated with microsomes at 37° C., shaking at 100 rpm. Incubations were performed in duplicates. Five time points over 40 minutes have been analyzed. The reactions were stopped by adding 12 volumes of 90% acetonitrile-water to incubation aliquots, followed by protein sedimentation by centrifuging at 5500 rpm for 3 minutes. […]. Supernatants were analyzed using the HPLC system coupled with tandem mass spectrometer (API3000 PE Sciex). Acquisition and analysis of the data were performed using Analyst 1.5.2 software (PE Sciex). The elimination constant (kel), half-life (t½) and intrinsic clearance (Clint) were determined in plot of […] versus time, using linear regression analysis:
(§3) Mouse hepatic microsomes were isolated from pooled, perfused livers of male CD1 mice. Rat hepatic microsomes were isolated from pooled, perfused livers of male Sprague Dawley rats. Dog hepatic microsomes were isolated from pooled, perfused livers of male Beagle dogs. The batches of microsomes were tested for quality control using Testosterone, Propranolol and Caffeine as reference compounds.
(§4) A 10 mM stock solution of compound in DMSO is diluted three-fold in DMSO. This pre-diluted compound solution is then further diluted to 2 μM in a 50 mM phosphate buffer (PBS, pH 7.4) and pre-warmed at 37° C. This compound dilution is mixed F2 with microsomal/cofactor mix at 37° C. under shaking at 300 rpm. Final reaction conditions are: 100 μL incubation volume, 1 μM of test compound (in duplicate), <0.1% DMSO, 0.5 mg/mL microsomes, 0.6 U/mL Glucose-6-phosphate-dehydrogenase (G6PDH, Roche, 10127671001), 3.3 mM MgCl2 (Sigma, M2670), 3.3 mM glucose-6-phosphate (Sigma, G-7879) and 1.3 mM NADP+ (Sigma, N-0505).
(§5) After 60 min of incubation at 300 rpm and 37° C., the reaction was stopped with 3 volumes of STOP solution (acetonitrile/MeOH 2/1 with diclofenac as internal standard). For the time point zero, 3 volumes of STOP solution were added to the compound dilution before the microsome mix was added. Six time points over 60 minutes have been analyzed. The samples of all time points were centrifuged, filtered and the supernatant analyzed by LCMS/MS (systems API4000).
(§6) The instrument responses (peak areas/IS peak area) were referenced to the zero time-point samples (considered as 100%) in order to determine the percentage of compound remaining.
(§7) Testosterone (1 μM) and Propranolol and Caffeine (1 μM) were used as reference compounds, being unstable and stable compounds respectively. If the microsomal stability values for these controls are not in the range determined by the historical data, the assay is not validated. The solubility of the compound in the final test concentration in 50 mM buffer pH 7.4 is checked by microscope to indicate whether precipitation is observed or not. If a precipitate is observed, no data of microsomal stability is generated.

[3] = target: human AT2R fused to Cb23 (Homo sapiens, UniProt P50052); test: Radioligand binding assay, displacement of 125I-[Sar1, Ile8]-Angiotensin II, hAT2R Cb23; conditions: displacement of 125I-[Sar1, Ile8]-Angiotensin II, human AT2R fused to Cb23, HEK-293 cell membrane preparations; read-out: Binding affinity on hAT2R_Cb23 IC50
Summary of the method: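 Membranes from HEK-293 cells expressing human AT2R fused to Cb23 were incubated with 0.05 nM 125I-[Sar1, Ile8]-Angiotensin II in 100 μL buffer (50 mM Tris, 5 mM MgCl2, 1 mM EDTA, 0.1% BSA, pH 7.4) for one hour at 25° C. Ligands were tested as eight-point dose-response curves in duplicate, with C21 and Angiotensin II as references.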

[4] = Liver microsomal stability, human; type: in vitro ADME; conditions: pH 7.4, liver microsomes
Description: as §2, §4, §5, §6, §7

[5] = Liver microsomal stability, mouse; type: in vitro ADME; conditions: male, pH 7.4, liver microsomes
Description: as §1, §2, §3, §4, §5, §6, §7

Chain of human AT2R fused to Cb23 (P50052 whole entry, looked up, the tested form may be a part): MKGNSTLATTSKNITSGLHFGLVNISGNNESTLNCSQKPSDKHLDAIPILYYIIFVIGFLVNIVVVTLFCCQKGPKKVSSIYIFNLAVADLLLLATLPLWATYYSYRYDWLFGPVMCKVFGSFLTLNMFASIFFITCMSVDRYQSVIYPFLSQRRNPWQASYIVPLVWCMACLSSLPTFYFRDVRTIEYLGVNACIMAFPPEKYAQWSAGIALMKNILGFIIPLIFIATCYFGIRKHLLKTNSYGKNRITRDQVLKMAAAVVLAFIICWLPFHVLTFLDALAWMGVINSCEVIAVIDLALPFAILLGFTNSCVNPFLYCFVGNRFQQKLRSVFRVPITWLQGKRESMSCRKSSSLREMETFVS
Chain of human AT1R (P30556 whole entry): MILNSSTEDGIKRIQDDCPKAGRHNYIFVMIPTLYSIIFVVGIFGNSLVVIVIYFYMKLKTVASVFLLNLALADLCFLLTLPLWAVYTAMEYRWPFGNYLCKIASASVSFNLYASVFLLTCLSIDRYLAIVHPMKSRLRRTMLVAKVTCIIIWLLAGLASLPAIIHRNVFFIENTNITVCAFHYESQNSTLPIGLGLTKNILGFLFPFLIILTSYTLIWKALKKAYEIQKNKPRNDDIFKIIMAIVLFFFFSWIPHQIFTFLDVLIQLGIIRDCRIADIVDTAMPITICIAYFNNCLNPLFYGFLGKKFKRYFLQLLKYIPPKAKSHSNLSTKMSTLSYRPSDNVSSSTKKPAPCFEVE

SMILES: CC(C)Cc1ccc(-c2nn[nH]n2)c(N2CCN(Cc3nc4ccccc4s3)CC2)c1 [Compound A-48, 2-[[4-[5-isobutyl-2-(2H-tetrazol-5-yl)-phenyl]piperazin-1-yl]methyl]-1,3-benzothiazole]
inhibition at 1 µM [1]: < 30%
inhibition at 10 µM [1]: 30 to 50%
IC50 [1]: 27800 nM
microsomal CLint [2]: 13 µL/min/mg
IC50 [3]: 628 nM
microsomal CLint [4]: 32 µL/min/mg
microsomal CLint [5]: 14 µL/min/mg

SMILES: Cc1cnc(C(C)N2CCN(c3cc(CC(C)C)cc(F)c3-c3nn[nH]n3)C[C@@H]2C)s1 (stereo partly drawn) [Compound A-226, 2-[1-[(2S)-4-[3-fluoro-5-isobutyl-2-(2H-tetrazol-5-yl)phenyl]-2-methyl-piperazin-1-yl]ethyl]-5-methyl-thiazole]
inhibition at 1 µM [1]: < 30%
inhibition at 10 µM [1]: < 30%
IC50 [3]: 37.2 nM

SMILES: CC(C)Cc1ccc(-c2nn[nH]n2)c(N2CCCN(Cc3cccnn3)CC2)c1 [Compound A-230, 1-[5-isobutyl-2-(2H-tetrazol-5-yl)-phenyl]-4-(pyrid-azin-3-ylmethyl)-1,4-diazepane]
inhibition at 1 µM [1]: < 30%
inhibition at 10 µM [1]: < 30%
IC50 [3]: 1230 nM

SMILES: CC(C)Cc1cc(F)c(-c2nn[nH]n2)c(N2CCCN(Cc3cccnn3)CC2)c1 [Compound A-231, 1-[3-fluoro-5-isobutyl-2-(2H-tetrazol-5-yl)phenyl]-4-(pyridazin-3-ylmethyl)-1,4-diazepane]
inhibition at 1 µM [1]: < 30%
inhibition at 10 µM [1]: 30 to 50%
IC50 [1]: 18900 nM
IC50 [3]: 368 nM

SMILES: CC(C)Cc1ccc(-c2nn[nH]n2)c(N2CC3CN(Cc4cccnn4)CC3C2)c1 (stereo not drawn) [Compound A-232, 5-[5-isobutyl-2-(2H-tetrazol-5-yl)-phenyl]-2-(pyrid-azin-3-ylmethyl)-1,3,3a,4,6,6a-hexahydropyrrolo-[3,4-c]pyrrole]
inhibition at 1 µM [1]: < 30%
inhibition at 10 µM [1]: < 30%
IC50 [3]: 2670 nM

SMILES: CC(C)Cc1cc(F)c(-c2nn[nH]n2)c(N2CC3CN(Cc4cccnn4)CC3C2)c1 (stereo not drawn) [Compound A-233, 5-[3-fluoro-5-isobutyl-2-(2H-tetrazol-5-yl)phenyl]-2-(pyridazin-3-ylmethyl)-1,3,3a,4,6,6a-hexahydropyrrolo[3,4-c]pyrrole]
inhibition at 1 µM [1]: < 30%
inhibition at 10 µM [1]: < 30%
IC50 [3]: 1310 nM

SMILES: CC(C)Cc1ccc(-c2nn[nH]n2)c(C2CCN(Cc3cccnn3)CC2)c1 [Compound A-234, 3-[[4-[5-isobutyl-2-(2H-tetrazol-5-yl)-phenyl]-1-piperid-yl]methyl]pyrid-azine]
inhibition at 1 µM [1]: < 30%
inhibition at 10 µM [1]: < 30%
IC50 [3]: 2020 nM

Other lines, results leading:

inhibition at 1 µM [1]: < 30%
inhibition at 10 µM [1]: < 30%
IC50 [3]: 6890 nM
SMILES: CC(C)Cc1ccc(-c2nn[nH]n2)c(C2CCN(Cc3cccnn3)C2)c1 (stereo not drawn) [Compound A-235, 3-[[3-[5-isobutyl-2-(2H-tetrazol-5-yl)-phenyl]pyrrolidin-1-yl]methyl]pyrid-azine]

inhibition at 1 µM [1]: < 30%
inhibition at 10 µM [1]: < 30%
IC50 [3]: 1010 nM
SMILES: CC(C)Cc1ccc(-c2nn[nH]n2)c(N2CC(NCc3cccnn3)C2)c1 [Compound A-236, 1-(5-isobutyl-2-(2H-tetrazol-5-yl)-phenyl)-N-(pyrid-azin-3-ylmethyl)-azetidin-3-amine]

inhibition at 1 µM [1]: < 30%
inhibition at 10 µM [1]: < 30%
IC50 [3]: 2570 nM
SMILES: CC(C)Cc1ccc(-c2nn[nH]n2)c(C(=O)N2CCN(Cc3cccnn3)CC2)c1 [Compound A-239, [5-isobutyl-2-(2H-tetrazol-5-yl)phenyl]-[4-(pyridazin-3-ylmethyl)piperazin-1-yl]methanone]

inhibition at 1 µM [1]: < 30%
inhibition at 10 µM [1]: > 50%
IC50 [1]: 11500 nM
IC50 [3]: 159 nM
SMILES: CCCN(C(=O)c1cccs1)c1ccc2nc(CC)n(CC3CCN(c4ccccc4-c4nn[nH]n4)CC3)c(=O)c2c1 [Compound A-243, N-[2-ethyl-4-oxo-3-[[1-[2-(2H-tetrazol-5-yl)phen-yl]-4-piperidyl]-methyl]quinazolin-6-yl]-N-propyl-thiophene-2-carbox-amide]

inhibition at 1 µM [1]: < 30%
inhibition at 10 µM [1]: > 50%
IC50 [1]: 6620 nM
IC50 [3]: 104 nM
SMILES: CCc1nc2ccc(N(Cc3cccnc3)C(=O)c3cccs3)cc2c(=O)n1CC1CCN(c2ccccc2-c2nn[nH]n2)CC1 [Compound A-244, N-[2-ethyl-4-oxo-3-[[1-[2-(2H-tetrazol-5-yl)phenyl]-4-piperidyl]methyl]quinazolin-6-yl]-N-(3-pyridylmethyl)thiophene-2-carboxamide]

inhibition at 1 µM [1]: < 30%
inhibition at 10 µM [1]: 30 to 50%
IC50 [1]: 26700 nM
IC50 [3]: 102 nM
SMILES: CCc1nc2ccc(N(Cc3ccccc3)C(=O)c3cccs3)cc2c(=O)n1CC1CCN(c2ccccc2-c2nn[nH]n2)CC1 [Compound A-246, N-benzyl-N-[2-ethyl-4-oxo-3-[[1-[2-(2H-tetrazol-5-yl)phenyl]-4-piper-idyl]methyl]quin-azolin-6-yl]thio-phene-2-carbox-amide]

inhibition at 1 µM [1]: < 30%
inhibition at 10 µM [1]: < 30%
IC50 [1]: 40100 nM
IC50 [3]: 48 nM
SMILES: CCc1nc2ccc(N(Cc3ccccc3Cl)C(=O)c3cccs3)cc2c(=O)n1CC1CCN(c2ccccc2-c2nn[nH]n2)CC1 [Compound A-248, N-[(2-chlorophenyl)methyl]-N-[2-ethyl-4-oxo-3-[[1-[2-(2H-tetrazol-5-yl)phenyl]-4-piperidyl]methyl]quinazolin-6-yl]thiophene-2-carboxamide]
